Experiment [1] concerns Meloidogyne incognita. Kind of experiment: Nematicidal activity against Meloidogyne incognita (root-knot nematode) second stage juveniles after 72 hr. Type of experiment: functional.
Experiment [2] relates to Rotylenchulus reniformis. The experiment in a line: Nematicidal activity against Rotylenchulus reniformis (reniform nematode) after 72 hr. Type of experiment: functional.

Converted amounts (≈) assume the structure as drawn.

Results on three molecules are retold here after ChEMBL document CHEMBL3044943, “Nematicidal prenylated flavanones from Phyllanthus niruri” (2008).

Consider `CC(C)=CCc1cccc2c1OC(c1ccccc1)CC2=O` (stereo not given), for which the median lethal concentration (LC50) in experiment [1] was 70.9 mg/L (≈ 242 µM); in experiment [2], 103 mg/L (≈ 352 µM).
For the molecule `CC(C)=CCc1cccc2c1OC(c1ccc(O)cc1)CC2=O` (stereo not given), the values for the LC50 in experiment [1] and in experiment [2] were 14.5 mg/L (≈ 47 µM) and 3.3 mg/L (≈ 10.7 µM), respectively.
On to `CNC(=O)Oc1cccc2c1OC(C)(C)C2` [CARBOFURAN], for which the 50% lethal concentration (LC50) in experiment [2] came to 3.1 mg/L (≈ 14 µM).

Usually LC50 stands for the concentration that kills 50% of the test population. Read a low LC50 as greater toxicity.
